Results on 17 compounds are retold here after ChEMBL document CHEMBL5291721, “A preclinical secondary pharmacology resource illuminates target-adverse drug reaction associations of marketed drugs” (Nat Commun, 2023).

Assay [1] addresses T1, Gamma-aminobutyric acid receptor subunit alpha-1/alpha-2/beta-2/gamma-2 (Homo sapiens, UniProt P14867+P18507+P47869+P47870). The format is functional, cell-based.
For assay [2], the target named is T1, Gamma-aminobutyric acid receptor subunit alpha-1/alpha-2/beta-2/gamma-2. The format is functional, cell-based. This is another data set of the same source.
For assay [3], the target named is T2, Peroxisome proliferator-activated receptor gamma (Homo sapiens, UniProt P37231).
T2 sequence (P37231 whole entry): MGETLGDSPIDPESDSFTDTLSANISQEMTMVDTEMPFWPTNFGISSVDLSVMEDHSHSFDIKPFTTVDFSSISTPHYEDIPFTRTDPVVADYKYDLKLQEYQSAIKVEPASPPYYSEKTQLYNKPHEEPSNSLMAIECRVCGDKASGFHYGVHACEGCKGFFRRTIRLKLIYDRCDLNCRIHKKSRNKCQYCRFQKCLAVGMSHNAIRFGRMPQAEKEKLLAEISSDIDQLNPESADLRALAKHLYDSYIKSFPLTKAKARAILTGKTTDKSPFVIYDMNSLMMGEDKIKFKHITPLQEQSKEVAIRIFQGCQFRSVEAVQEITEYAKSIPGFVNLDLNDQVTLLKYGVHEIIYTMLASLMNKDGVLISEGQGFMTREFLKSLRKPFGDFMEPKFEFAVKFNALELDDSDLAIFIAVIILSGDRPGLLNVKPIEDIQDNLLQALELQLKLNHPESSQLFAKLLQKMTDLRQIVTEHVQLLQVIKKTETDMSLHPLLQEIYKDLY
Type of assay: functional.

For assay [4], the target named is T3, Progesterone receptor (Homo sapiens, UniProt P06401).
T3 sequence (P06401 whole entry): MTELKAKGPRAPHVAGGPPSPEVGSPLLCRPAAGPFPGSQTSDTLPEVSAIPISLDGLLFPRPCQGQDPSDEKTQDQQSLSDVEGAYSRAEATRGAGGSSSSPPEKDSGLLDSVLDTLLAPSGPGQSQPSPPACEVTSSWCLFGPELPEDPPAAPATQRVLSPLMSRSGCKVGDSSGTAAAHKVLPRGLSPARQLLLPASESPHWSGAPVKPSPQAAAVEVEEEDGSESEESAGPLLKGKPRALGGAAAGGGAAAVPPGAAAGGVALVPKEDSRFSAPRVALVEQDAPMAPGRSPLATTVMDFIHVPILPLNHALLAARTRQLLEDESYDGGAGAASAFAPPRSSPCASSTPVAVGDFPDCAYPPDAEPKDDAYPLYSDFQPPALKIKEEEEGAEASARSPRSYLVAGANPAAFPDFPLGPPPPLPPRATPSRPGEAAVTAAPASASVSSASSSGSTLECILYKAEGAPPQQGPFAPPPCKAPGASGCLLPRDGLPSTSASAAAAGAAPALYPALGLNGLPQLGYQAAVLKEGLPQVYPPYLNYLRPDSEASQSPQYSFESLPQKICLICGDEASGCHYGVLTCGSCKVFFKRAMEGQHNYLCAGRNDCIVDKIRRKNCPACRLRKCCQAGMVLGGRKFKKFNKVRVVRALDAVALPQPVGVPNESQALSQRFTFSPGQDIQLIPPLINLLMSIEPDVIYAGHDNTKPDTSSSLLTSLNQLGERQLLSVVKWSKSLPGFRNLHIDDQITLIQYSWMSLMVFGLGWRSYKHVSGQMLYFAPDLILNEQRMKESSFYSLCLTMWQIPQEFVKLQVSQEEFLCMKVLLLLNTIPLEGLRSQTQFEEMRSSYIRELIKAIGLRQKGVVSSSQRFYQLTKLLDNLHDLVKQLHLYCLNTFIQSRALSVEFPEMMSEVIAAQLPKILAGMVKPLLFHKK

The target of assay [5] is T4, 5-hydroxytryptamine receptor 1A (Homo sapiens, UniProt P08908).
T4 sequence (P08908 whole entry): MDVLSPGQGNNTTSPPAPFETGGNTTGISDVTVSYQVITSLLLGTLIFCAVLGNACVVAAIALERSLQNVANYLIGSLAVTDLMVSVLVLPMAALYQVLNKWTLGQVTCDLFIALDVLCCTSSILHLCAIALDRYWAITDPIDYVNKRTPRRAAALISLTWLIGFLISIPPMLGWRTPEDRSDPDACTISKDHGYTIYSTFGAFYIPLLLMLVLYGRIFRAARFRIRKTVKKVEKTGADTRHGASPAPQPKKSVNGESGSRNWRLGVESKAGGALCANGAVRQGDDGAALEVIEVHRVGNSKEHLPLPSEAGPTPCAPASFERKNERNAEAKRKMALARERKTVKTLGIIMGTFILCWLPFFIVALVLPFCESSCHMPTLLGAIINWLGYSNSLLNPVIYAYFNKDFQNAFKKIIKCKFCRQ

The target of assay [6] is Voltage-dependent N-type calcium channel subunit alpha-1B (Rattus norvegicus, UniProt Q02294). The format is functional.
For assay [7], the target named is Histamine H2 receptor (Homo sapiens, UniProt P25021).
In assay [8] the target is Neurotensin receptor type 1 (Homo sapiens, UniProt P30989).
Assay [9] addresses T5, B1 bradykinin receptor (Homo sapiens, UniProt P46663).
T5 sequence (P46663 whole entry): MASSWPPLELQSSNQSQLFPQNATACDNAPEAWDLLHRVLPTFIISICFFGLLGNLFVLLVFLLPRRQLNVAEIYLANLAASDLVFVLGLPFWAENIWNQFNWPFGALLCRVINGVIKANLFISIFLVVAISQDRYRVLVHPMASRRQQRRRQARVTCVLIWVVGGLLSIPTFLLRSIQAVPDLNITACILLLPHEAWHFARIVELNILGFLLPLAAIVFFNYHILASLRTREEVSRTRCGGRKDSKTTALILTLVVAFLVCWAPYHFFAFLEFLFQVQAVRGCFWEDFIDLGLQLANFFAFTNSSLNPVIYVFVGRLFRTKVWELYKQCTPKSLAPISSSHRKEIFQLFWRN

The target of assay [10] is T4, 5-hydroxytryptamine receptor 1A. The source holds these as a separate data set.
Assay [11] concerns the target Beta-3 adrenergic receptor (Homo sapiens, UniProt P13945).
Note: assay procedure not described here.

Chain of Beta-3 adrenergic receptor (P13945 whole entry): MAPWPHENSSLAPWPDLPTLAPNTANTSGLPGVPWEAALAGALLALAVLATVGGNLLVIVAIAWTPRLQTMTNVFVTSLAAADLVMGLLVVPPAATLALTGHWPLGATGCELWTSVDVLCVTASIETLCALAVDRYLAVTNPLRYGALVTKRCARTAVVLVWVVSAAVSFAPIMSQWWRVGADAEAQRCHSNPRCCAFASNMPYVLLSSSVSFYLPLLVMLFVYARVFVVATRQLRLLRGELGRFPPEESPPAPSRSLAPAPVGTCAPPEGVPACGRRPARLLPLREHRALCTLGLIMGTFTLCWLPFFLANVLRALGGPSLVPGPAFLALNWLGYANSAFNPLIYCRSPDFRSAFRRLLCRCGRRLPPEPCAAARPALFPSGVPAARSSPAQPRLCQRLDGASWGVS
Chain of Histamine H2 receptor (P25021 whole entry): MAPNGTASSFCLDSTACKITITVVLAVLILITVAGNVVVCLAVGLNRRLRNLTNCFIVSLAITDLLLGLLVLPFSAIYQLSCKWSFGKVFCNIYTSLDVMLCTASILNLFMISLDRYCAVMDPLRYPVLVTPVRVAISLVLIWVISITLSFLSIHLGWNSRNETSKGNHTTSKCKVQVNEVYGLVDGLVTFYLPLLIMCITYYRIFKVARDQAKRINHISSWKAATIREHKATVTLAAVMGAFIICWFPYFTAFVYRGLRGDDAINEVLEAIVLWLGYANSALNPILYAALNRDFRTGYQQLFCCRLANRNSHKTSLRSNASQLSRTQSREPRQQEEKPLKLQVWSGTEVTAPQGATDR
Chain of Voltage-dependent N-type calcium channel subunit alpha-1B (Q02294 whole entry): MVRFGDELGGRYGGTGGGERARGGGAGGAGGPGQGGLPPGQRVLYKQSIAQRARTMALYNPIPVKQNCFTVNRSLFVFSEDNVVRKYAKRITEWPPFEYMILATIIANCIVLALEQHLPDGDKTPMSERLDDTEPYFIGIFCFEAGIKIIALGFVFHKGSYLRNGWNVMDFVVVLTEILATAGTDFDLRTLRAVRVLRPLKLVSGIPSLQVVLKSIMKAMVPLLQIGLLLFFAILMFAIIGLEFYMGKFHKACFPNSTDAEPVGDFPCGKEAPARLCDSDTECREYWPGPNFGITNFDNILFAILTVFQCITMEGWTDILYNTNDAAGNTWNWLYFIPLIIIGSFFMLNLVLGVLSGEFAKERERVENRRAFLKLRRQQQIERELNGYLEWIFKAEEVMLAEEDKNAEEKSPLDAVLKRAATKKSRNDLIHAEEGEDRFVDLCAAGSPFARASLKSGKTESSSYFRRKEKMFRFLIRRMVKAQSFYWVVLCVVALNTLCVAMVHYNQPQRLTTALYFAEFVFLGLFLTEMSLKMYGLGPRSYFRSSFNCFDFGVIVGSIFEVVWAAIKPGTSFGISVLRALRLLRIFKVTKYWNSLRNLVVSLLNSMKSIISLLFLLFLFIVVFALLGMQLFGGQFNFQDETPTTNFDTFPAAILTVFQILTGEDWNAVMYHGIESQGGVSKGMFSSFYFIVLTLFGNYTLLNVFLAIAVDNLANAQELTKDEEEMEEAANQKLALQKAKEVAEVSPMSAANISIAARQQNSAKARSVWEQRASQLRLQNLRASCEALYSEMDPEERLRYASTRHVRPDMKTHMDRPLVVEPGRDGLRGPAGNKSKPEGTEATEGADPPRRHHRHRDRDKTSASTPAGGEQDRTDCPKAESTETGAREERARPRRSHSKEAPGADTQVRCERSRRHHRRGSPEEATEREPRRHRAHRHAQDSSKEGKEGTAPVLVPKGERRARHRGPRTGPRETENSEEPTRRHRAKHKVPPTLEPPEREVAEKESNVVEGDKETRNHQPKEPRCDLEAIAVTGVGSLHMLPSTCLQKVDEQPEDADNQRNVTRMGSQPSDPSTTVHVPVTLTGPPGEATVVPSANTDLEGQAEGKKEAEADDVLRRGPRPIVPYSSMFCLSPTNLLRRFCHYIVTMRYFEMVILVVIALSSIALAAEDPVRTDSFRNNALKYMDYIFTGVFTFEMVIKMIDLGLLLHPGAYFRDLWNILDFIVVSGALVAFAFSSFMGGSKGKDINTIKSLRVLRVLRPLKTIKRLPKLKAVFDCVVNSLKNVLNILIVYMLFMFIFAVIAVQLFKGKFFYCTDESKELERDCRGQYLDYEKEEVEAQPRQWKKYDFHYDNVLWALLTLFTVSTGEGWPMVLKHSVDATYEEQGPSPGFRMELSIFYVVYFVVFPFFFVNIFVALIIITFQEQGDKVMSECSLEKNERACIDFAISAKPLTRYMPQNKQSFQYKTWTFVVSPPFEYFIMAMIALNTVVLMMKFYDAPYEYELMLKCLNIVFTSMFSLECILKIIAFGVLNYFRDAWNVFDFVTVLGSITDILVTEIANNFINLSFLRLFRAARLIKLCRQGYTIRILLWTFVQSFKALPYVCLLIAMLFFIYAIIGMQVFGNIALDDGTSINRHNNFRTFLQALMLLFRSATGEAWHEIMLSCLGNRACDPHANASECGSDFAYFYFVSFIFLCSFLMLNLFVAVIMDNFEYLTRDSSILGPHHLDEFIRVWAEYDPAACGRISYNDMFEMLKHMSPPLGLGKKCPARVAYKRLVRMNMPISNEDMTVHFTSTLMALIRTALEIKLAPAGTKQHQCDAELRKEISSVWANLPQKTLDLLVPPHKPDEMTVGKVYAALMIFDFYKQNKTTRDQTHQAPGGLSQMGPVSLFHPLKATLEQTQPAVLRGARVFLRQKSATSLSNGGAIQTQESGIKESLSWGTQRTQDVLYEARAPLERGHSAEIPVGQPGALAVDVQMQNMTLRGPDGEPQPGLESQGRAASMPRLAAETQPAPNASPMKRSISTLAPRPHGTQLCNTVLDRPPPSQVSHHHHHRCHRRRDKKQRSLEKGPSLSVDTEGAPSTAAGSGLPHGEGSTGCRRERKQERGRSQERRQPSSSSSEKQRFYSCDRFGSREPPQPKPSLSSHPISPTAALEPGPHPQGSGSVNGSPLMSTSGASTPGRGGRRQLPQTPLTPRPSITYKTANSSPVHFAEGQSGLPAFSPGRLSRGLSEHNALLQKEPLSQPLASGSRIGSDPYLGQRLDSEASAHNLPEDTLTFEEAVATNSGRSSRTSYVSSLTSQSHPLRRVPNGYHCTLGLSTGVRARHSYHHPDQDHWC
T1 sequence (P14867 whole entry): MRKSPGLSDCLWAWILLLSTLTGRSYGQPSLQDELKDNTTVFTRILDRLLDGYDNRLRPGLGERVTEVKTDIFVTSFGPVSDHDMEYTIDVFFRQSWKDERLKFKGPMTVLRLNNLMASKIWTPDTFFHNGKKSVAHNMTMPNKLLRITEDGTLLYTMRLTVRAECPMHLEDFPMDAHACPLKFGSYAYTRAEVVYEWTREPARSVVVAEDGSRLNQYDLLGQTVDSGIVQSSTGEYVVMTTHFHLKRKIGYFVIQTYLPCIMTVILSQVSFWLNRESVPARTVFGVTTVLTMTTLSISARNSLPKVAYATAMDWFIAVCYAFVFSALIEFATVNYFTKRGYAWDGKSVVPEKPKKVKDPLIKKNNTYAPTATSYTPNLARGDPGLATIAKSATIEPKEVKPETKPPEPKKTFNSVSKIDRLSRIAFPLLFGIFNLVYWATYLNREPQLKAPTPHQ
T1 sequence (P47870 whole entry): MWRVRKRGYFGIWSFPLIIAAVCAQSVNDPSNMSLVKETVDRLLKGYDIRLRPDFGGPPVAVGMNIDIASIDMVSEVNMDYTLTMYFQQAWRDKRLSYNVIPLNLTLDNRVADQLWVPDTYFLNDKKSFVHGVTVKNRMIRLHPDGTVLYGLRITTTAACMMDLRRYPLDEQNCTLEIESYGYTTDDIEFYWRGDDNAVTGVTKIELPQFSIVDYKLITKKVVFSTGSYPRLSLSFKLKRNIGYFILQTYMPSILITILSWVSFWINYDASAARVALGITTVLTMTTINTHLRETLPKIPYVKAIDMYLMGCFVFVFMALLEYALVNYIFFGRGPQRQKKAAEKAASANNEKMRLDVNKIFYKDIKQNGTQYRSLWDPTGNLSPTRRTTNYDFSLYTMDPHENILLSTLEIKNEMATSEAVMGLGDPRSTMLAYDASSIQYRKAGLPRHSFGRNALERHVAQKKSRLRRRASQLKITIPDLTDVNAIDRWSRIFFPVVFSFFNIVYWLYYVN
T1 sequence (P18507 whole entry): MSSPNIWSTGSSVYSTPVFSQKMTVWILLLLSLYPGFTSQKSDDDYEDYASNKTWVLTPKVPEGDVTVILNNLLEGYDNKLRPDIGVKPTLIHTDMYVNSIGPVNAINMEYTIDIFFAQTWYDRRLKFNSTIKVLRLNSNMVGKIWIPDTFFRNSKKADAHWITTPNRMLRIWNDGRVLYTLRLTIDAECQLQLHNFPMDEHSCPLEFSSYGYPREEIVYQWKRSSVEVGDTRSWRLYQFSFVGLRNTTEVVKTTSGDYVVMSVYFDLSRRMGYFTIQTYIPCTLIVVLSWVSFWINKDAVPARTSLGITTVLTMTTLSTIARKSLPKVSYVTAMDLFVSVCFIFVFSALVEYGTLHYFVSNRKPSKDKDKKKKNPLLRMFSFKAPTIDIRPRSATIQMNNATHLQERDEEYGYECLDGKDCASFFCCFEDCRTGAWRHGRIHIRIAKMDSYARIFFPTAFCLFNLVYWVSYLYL
T1 sequence (P47869 whole entry): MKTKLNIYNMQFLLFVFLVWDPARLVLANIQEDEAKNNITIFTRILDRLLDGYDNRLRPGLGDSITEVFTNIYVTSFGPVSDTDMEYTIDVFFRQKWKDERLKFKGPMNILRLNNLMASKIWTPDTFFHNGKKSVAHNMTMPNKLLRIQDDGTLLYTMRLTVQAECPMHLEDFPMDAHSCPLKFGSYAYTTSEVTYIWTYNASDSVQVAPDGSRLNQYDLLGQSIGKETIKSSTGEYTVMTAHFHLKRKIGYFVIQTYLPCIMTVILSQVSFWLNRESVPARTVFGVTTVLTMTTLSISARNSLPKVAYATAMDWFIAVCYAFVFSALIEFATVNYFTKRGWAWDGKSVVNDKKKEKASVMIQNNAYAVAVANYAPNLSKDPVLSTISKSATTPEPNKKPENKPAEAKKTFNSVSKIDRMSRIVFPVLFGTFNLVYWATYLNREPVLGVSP

As for `CO/N=C(\C(=O)N[C@@H]1C(=O)N2C(C(=O)[O-])=C(C[N+]3(C)CCCC3)CS[C@H]12)c1csc(N)n1`, the values for the AC50 in [1], in assay [2] and in assay [3] were more than 2400 µM, more than 2400 µM and more than 300 µM, respectively.
Turning to `CC(=O)c1ccc2c(c1)N(CCCN1CCN(CCO)CC1)c1ccccc1S2` [ACETOPHENAZINE], the AC50 in assay [1], in assay [2] and in [3] was more than 30 µM each time.
Take `Oc1ncnc2[nH]ncc12` [ALLOPURINOL]: the AC50 in [4] is more than 30 µM; in assay [5] it was more than 30 µM; in assay [6], more than 10 µM; in assay [7], more than 10 µM; in [8] it was more than 30 µM; in assay [9], more than 30 µM. Moreover, the concentration at half-maximal activity (AC50) is more than 10 µM in [10] and more than 30 µM in [11].
With `CC(N)Cc1ccccc1` (stereo not given) [AMPHETAMINE], the AC50 in [1] was more than 30 µM; in [4], more than 30 µM; in assay [2] it was more than 30 µM; in assay [6] it was more than 10 µM; in assay [8], more than 30 µM; in assay [9], more than 30 µM. The AC50 in assay [3] is more than 30 µM; in assay [10] it was more than 10 µM; in [11], more than 30 µM.
`CN1CCCC(n2nc(Cc3ccc(Cl)cc3)c3ccccc3c2=O)CC1` (stereo not given) [AZELASTINE]: the AC50 in assay [1] is more than 30 µM; in assay [2], 19 µM; in assay [3], more than 30 µM.
For the compound `N[C@@H](C(=O)N[C@@H]1C(=O)N2C(C(=O)O)=C(Cl)CS[C@H]12)c1ccccc1` [CEFACLOR ANHYDROUS], the half-maximal activity concentration (AC50) in [1], in assay [2] and in assay [3] was more than 30 µM throughout.
`CN(C)CCCN1c2ccccc2CCc2ccc(Cl)cc21` [CLOMIPRAMINE]: the concentration at half-maximal activity (AC50) in assay [5] was 5.33 µM; in assay [6] it was more than 10 µM; in [10], more than 10 µM.
For the compound `CC(=O)OCC(=O)[C@@]1(O)CC[C@H]2[C@@H]3CCC4=CC(=O)CC[C@]4(C)[C@H]3C(=O)C[C@@]21C` [CORTISONE ACETATE], the AC50 in assay [1] is more than 30 µM.
For the compound `CC(C)Cc1ccc(CC(=O)O)cc1` [IBUFENAC], the AC50 in [1], in assay [2] and in [3] was more than 30 µM in each case.
`CC(C)NNC(=O)c1ccncc1` [IPRONIAZID]: the half-maximal activity concentration (AC50) in assay [1] and in assay [3] was more than 30 µM each time.
With `CCN(CC)CCNC(=O)c1cc(Cl)c(N)cc1OC` [METOCLOPRAMIDE], the AC50 in [4] is more than 30 µM; in assay [6], more than 10 µM; in [7], more than 10 µM; in assay [8], more than 30 µM; in assay [9], more than 30 µM; in assay [10], more than 10 µM. In [11], this compound yielded an AC50 of more than 30 µM.
Take `Cc1cccc(C)c1OCC(C)N` (stereo not given) [MEXILETINE]: the AC50 in assay [3] is more than 30 µM.
In the case of `NC(=O)c1ncn([C@@H]2O[C@H](CO)[C@@H](O)[C@H]2O)c1O` [MIZORIBINE], the AC50 in assay [1], in [2] and in assay [3] was more than 30 µM each time.
For the compound `OCCN1CCN(CCCN2c3ccccc3C=Cc3ccccc32)CC1` [OPIPRAMOL], the half-maximal activity concentration (AC50) in assay [1] was more than 30 µM; in assay [5], 9.25 µM; in assay [2], more than 30 µM; in assay [3], more than 30 µM.
Turning to `NC1=NC(=O)C(c2ccccc2)O1` (stereo not given) [PEMOLINE], the AC50 is more than 30 µM in assay [4] and more than 10 µM in [10].
For the compound `CC(C(=O)O)c1ccc(N2CC=CC2)c(Cl)c1` (stereo not given) [PIRPROFEN], the concentration at half-maximal activity (AC50) in [4] was more than 30 µM; in assay [5], more than 30 µM; in [6], more than 10 µM; in assay [7], more than 10 µM; in [8], more than 30 µM; in [9], more than 30 µM. Also, the AC50 is more than 10 µM in assay [10] and more than 30 µM in assay [11].
For the compound `CC[C@H](C)C(=O)O[C@H]1C[C@H](O)C=C2C=C[C@H](C)[C@H](CC[C@@H](O)C[C@@H](O)CC(=O)O)[C@H]21` [PRAVASTATIN], the AC50 in assay [1] and in [3] was more than 30 µM in each case.
